Experimental data as given in patent US20050256093A1, “Branched polyamine steroid derivatives” (Leo Pharma, priority 2002, published 2005).
≈ marks a conversion by molar mass, not a printed value.

Assays:
Type in all cases: cell-based
S. aureus = assay: Minimum Bactericidal Concentration (MBC), broth culture and colony count; details: staphylococci, LB broth, aerobic; concentration twice that of MIC; FIG. 1
Method: (§1) 10^6 bacteria were inoculated in 3 ml growth media (S. aureus—LB broth, S. pyogenes—TH broth) containing approximately 2×MIC, 1×MIC, 0.5×MIC and O×MIC respectively of compound 102 (MIC being relative to the strain being tested). S. aureus strains were grown aerobically, and S. pyogenes anaerobically in a carbon dioxide enriched incubator. Samples were diluted and plated on LA-plates (S. aureus) or blood-agar plates (S. pyogenes) followed by 24 hours incubation at 37° C. before being scored for colonies.

S. pyogenes = assay: as above; details: streptococci, TH broth, anaerobic; concentration twice that of MIC; FIG. 2
Method: as §1

[1] = tested on: Propionibacterium acnes FN33; assay: agar cup assay MIC; details: Cutibacterium acnes
Source text: (§2) In vitro investigations have shown a significant potency of the compounds of the invention against a large number of bacteria including gram-positive and gram-negative strains (Staphyiococci, Streptococci, Corynebacteriae, Mycobacteriae, Proteus, Propionibacterium, Pseudomonas, Neisseriae, E. coli) and fungal strains (Candida and Aspergillus). […] In addition, the studies of post-antibiotic effects point towards a strong bactericidal effect of the compounds of the invention. […] Minimum Inhibitory Concentrations were estimated using an agar cup assay. Bacterial strains were obtained from the American Type Culture Collection or from our own collection of clinical isolates. Colonies from fresh overnight culture were resuspended in saline water to 0.5 MacFarland corresponding to 10^8 CFU/ml. 200 ml Mueller Hinton agar (Oxoid) at 48° C. was inoculated at a concentration of 10^6 CFU/ml and poured into square petri dishes (245×245 mm). Holes were made in the inoculated plates and 200 μl of the compounds to be tested were disposed into each hole. A dilution series of compounds contained six dilution between 0.25 and 125 μg/ml. For Streptococci Mueller Hinton agar was supplemented with 5% sheep blood. Plates were appropriately incubated and zone diameters of growth inhibition were measured using an electronic caliper. MICs were estimated using a linear regression curve between the zone diameter of growth inhibition and the log2 of the sample concentration. The microbiological assay set up is in agreement with the European Pharmacopoeia 3rd edition (1997). The inhibition zones are function of the concentration of the compounds used. Known antibiotics including fusidic acid (FA), mupirocin and linezolid were used as reference compounds.

S. aureus N6 = assay: agar cup assay MIC; details: Staphylococcus aureus; S. aureus N6 (Fus. resistant)
Source text: as §2

[2] = tested on: Streptococcus faecium EI19; assay: agar cup assay MIC; details: Enterococcus faecium; Streptococcus faecium EI19 (Penicillin resistant); agar with 5% sheep blood
Source text: as §2

Candida albicans ZA = assay: agar cup assay MIC
Source text: as §2

S. aureus CJ200 = assay: agar cup assay MIC; details: Staphylococcus aureus
Source text: as §2

[3] = tested on: Corynebacterium xerosis FF; assay: agar cup assay MIC
Source text: as §2

S. aureus CJ247 = assay: agar cup assay MIC; details: Staphylococcus aureus
Source text: as §2

S. aureus CJ234F = assay: agar cup assay MIC; details: Staphylococcus aureus; S. aureus CJ234F (MRSA, Fus. resistant)
Source text: as §2

S. aureus CJ234R = assay: agar cup assay MIC; details: Staphylococcus aureus; S. aureus CJ234R (MRSA, Rifampicin resistant)
Source text: as §2

S. epidermis CK5 = assay: agar cup assay MIC; details: Staphylococcus epidermidis
Source text: as §2

[4] = tested on: Saccaromyces cervisiae ZZ7; assay: agar cup assay MIC; details: Saccharomyces cerevisiae
Source text: as §2

Asbergillus niger ZM35 = assay: agar cup assay MIC; details: Aspergillus niger
Source text: as §2

[5] = tested on: Streptococcus pyogenes EC88; assay: agar cup assay MIC; details: agar with 5% sheep blood
Source text: as §2

[6] = tested on: Pseudomonas aeruginosa BA17; assay: agar cup assay MIC
Source text: as §2

E. coli HA165 = assay: agar cup assay MIC; details: Escherichia coli
Source text: as §2

Row | Structure (SMILES) | bactericidal impact (MBC) (S. aureus) | bactericidal impact (MBC) (S. pyogenes) | MIC [1] [µg/mL] | MIC (S. aureus N6) [µg/mL] | MIC [2] [µg/mL] | MIC (Candida albicans ZA) [µg/mL] | MIC (S. aureus CJ200) [µg/mL] | MIC [3] [µg/mL] | MIC (S. aureus CJ247) [µg/mL] | MIC (S. aureus CJ234F) [µg/mL] | MIC (S. aureus CJ234R) [µg/mL] | MIC (S. epidermis CK5) [µg/mL] | MIC [4] [µg/mL] | MIC (Asbergillus niger ZM35) [µg/mL] | MIC [5] [µg/mL] | MIC [6] [µg/mL] | MIC (E. coli HA165) [µg/mL]
1 | CC(=O)O[C@H]1C[C@@]2(C)C(CCC3[C@@]4(C)CC[C@@H](O)[C@@H](C)C4CC[C@@]32C)[C@@H]1[C@H](CCCC(C)C)C(=O)NCCN(CCN)CCN (stereo partly drawn) [Compound 102, 21-N-{2′-[bis(2′-aminoethyl)amino]ethyl}-11-desoxy-17R,20S,24,25-tetrahydrofusid-21-amide] | strong bacterial killing | strong bacterial killing | 4 (≈ 6.32 µM) | 4 (≈ 6.32 µM) | 16 (≈ 25.3 µM) | 4 (≈ 6.32 µM) | 4 (≈ 6.32 µM) | 4 (≈ 6.32 µM) | 4 (≈ 6.32 µM) | 4 (≈ 6.32 µM) | 4 (≈ 6.32 µM) | 4 (≈ 6.32 µM) | 16 (≈ 25.3 µM) | 4 (≈ 6.32 µM) | 16 (≈ 25.3 µM) | 16 (≈ 25.3 µM) | 16 (≈ 25.3 µM)
2 | C[C@H](CCC(=O)NCCN(CCN)CCN)[C@H]1CC[C@H]2[C@@H]3CC[C@@H]4C[C@H](O)CC[C@]4(C)[C@H]3[C@H](O)C[C@]12C [Compound 107] |  |  | 16 (≈ 30.7 µM) | 16 (≈ 30.7 µM) | 16 (≈ 30.7 µM) | 16 (≈ 30.7 µM) | 16 (≈ 30.7 µM) | 16 (≈ 30.7 µM) | 16 (≈ 30.7 µM) | 16 (≈ 30.7 µM) | 16 (≈ 30.7 µM) | 16 (≈ 30.7 µM) | 4 (≈ 7.68 µM) | 16 (≈ 30.7 µM) | 16 (≈ 30.7 µM) | 16 (≈ 30.7 µM) | 16 (≈ 30.7 µM)
